Experimental data reported in patent US9944618B2, “Inhibiting neurotransmitter reuptake” (Mayo Foundation for Medical Education and Research, priority 2013, dated 2018).
Read-outs that look alike come from different tables or passages of the source.

Columns and labels:
[1] = molecular target: human dopamine transporter (Homo sapiens (Human), UniProt Q01959); experiment: Human DAT (dopamine transporter) uptake assay; format: cell-based; settings: read-out: hDAT Ki
Procedure, shortened: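 Uptake inhibition was measured in HEK293F cells transfected with human DAT, plated at ~60,000 cells/well and settled ≥3 h at 37 °C. Compounds came from 10 mM DMSO stocks. Read-out was uptake of a fluorescent neurotransmitter transporter dye in HBSS with 0.02 M HEPES, with dye level given as % of vendor reconstitution; n=3.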

[2] = molecular target: human norepinephrine transporter (Homo sapiens (Human), UniProt P23975); experiment: Human NET (norepinephrine transporter) uptake assay; format: cell-based; settings: read-out: hNET Ki
human norepinephrine transporter, sequence (P23975 whole entry): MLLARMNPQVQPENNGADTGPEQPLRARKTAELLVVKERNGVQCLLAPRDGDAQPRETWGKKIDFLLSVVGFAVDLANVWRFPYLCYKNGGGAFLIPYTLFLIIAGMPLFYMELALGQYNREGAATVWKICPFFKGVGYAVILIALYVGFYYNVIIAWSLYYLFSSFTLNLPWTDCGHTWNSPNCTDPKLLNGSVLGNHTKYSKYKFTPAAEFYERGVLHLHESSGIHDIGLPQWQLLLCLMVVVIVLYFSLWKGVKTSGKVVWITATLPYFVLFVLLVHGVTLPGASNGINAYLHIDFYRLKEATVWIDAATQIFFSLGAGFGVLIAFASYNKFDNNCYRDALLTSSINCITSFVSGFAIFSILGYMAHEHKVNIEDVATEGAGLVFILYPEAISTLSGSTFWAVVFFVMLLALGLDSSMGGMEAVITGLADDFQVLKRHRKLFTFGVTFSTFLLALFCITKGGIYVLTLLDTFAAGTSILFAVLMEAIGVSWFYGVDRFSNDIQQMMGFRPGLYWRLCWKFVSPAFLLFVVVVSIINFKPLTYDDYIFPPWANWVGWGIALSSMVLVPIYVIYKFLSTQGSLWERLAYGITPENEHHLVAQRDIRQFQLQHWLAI
Procedure, shortened: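 HEK293F cells transfected with human NET were thawed, plated at about 60,000 cells/well and held at 37 °C for at least 3 h. Compounds came from 10 mM DMSO stocks, with nomifensine as control, in 1×HBSS/0.02 M HEPES. Uptake was followed with a neurotransmitter transporter dye, dosed as % of vendor reconstitution, in triplicate.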

CYP2D6 = CYP2D6 (Homo sapiens (Human), UniProt P10635); experiment: Cytochrome P450 inhibition assay, recombinant CYP2D6 (MAMC substrate); format: in vitro ADME; settings: recombinant enzyme
CYP2D6, sequence (P10635 whole entry): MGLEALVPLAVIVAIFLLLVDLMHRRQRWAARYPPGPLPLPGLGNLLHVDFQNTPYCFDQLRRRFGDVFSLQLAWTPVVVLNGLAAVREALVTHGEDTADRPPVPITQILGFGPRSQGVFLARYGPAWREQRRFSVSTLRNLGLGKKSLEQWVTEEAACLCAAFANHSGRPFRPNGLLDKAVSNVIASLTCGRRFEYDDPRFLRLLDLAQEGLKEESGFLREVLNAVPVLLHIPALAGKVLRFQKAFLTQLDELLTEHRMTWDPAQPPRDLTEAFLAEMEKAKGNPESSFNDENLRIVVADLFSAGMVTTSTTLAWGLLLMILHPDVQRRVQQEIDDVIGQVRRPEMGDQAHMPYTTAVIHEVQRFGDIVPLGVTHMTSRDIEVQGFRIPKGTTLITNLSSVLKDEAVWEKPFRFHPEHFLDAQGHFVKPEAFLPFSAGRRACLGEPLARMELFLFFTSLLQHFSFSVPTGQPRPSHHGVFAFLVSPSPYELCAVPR

hERG = hERG (Homo sapiens (Human), UniProt Q12809); experiment: Human ERG (hERG) assay, hERG currents in hERG-expressing CHO cells; format: cell-based; settings: hERG-expressing CHO cells
hERG, sequence (Q12809 whole entry): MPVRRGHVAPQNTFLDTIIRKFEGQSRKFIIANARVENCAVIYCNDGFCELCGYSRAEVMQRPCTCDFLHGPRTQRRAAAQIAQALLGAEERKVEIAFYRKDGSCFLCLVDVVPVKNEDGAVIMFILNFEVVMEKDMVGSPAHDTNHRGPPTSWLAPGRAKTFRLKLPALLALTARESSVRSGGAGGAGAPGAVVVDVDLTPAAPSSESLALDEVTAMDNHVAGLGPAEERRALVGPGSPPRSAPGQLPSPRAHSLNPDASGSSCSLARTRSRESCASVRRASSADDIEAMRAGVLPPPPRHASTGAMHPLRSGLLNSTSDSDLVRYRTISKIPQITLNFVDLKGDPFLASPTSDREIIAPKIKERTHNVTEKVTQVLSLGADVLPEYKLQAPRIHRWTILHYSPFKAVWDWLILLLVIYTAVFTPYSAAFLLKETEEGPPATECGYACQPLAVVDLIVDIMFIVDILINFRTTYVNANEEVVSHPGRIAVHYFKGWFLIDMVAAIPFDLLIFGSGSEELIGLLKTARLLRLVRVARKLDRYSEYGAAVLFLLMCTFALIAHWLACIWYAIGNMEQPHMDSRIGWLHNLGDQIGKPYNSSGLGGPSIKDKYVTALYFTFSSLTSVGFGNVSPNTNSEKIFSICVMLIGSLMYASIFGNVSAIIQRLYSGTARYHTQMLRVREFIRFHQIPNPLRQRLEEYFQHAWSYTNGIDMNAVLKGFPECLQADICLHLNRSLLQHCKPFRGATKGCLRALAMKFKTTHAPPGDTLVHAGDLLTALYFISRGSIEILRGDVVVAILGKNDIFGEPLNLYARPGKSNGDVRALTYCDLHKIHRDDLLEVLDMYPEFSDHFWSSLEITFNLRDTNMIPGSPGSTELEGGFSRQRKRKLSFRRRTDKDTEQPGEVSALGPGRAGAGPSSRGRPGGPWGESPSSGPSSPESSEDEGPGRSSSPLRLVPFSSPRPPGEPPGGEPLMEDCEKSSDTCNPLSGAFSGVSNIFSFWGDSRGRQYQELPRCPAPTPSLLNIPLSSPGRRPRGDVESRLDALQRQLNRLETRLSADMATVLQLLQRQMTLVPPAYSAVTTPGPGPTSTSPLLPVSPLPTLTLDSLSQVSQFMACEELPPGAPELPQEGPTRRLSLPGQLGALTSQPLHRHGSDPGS
Description: The voltage-dependent potassium channel encoded by the human ether-a-go-go-related gene (hERG) is believed to play a key role in repolarisation of the ventricular cardiac action potential. Changes in its activity, caused either by inherited mutations of the gene sequence or pharmacological modification, can lead to prolongation of action potential duration. This can lead to prolongation of the QT interval recorded in man on an electrocardiogram and to a potentially fatal cardiac arrhythmia known as Torsades de Pointes.
hERG currents were recorded from hERG-expressing CHO cells. The biophysical and pharmacological characterization of the hERG currents in these cells was performed.

[3] = pKa of basic centres (Table 1); format: physicochemical
[4] = molecular target: human serotonin transporter (Homo sapiens (Human), UniProt P31645); experiment: Human SERT (serotonin transporter) uptake assay; format: cell-based; settings: read-out: hSERT Ki
human serotonin transporter, sequence (P31645 whole entry): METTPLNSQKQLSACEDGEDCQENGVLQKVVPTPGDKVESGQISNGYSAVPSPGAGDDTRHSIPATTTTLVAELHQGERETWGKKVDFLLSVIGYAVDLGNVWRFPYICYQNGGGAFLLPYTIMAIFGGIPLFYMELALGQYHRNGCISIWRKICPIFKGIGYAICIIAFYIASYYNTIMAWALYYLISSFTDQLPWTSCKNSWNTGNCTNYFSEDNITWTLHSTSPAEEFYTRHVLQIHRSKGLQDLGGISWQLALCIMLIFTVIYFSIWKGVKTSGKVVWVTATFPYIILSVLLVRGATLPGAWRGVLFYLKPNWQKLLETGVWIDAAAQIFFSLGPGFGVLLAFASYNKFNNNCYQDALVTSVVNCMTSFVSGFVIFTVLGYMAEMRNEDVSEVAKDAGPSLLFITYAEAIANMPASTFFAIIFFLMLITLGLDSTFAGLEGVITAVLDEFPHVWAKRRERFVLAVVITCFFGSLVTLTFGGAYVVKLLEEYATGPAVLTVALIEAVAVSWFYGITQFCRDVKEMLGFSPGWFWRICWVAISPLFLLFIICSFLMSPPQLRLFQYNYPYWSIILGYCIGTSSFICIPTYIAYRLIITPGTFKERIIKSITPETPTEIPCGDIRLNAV
Procedure, shortened: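 HEK293F cells transfected with human SERT, about 60,000 per well, settled for ≥3 h at 37° C before compound addition. Uptake was followed with a fluorescent transporter dye in HBSS with 0.02 M HEPES. Background came from 10 μM fluoxetine, nomifensine was the control, n=3.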

CYP3A4 = CYP3A4 (Homo sapiens (Human), UniProt P08684); experiment: Cytochrome P450 inhibition assay, recombinant CYP3A4 (BFC substrate); format: in vitro ADME; settings: recombinant enzyme
CYP3A4, sequence (P08684 whole entry): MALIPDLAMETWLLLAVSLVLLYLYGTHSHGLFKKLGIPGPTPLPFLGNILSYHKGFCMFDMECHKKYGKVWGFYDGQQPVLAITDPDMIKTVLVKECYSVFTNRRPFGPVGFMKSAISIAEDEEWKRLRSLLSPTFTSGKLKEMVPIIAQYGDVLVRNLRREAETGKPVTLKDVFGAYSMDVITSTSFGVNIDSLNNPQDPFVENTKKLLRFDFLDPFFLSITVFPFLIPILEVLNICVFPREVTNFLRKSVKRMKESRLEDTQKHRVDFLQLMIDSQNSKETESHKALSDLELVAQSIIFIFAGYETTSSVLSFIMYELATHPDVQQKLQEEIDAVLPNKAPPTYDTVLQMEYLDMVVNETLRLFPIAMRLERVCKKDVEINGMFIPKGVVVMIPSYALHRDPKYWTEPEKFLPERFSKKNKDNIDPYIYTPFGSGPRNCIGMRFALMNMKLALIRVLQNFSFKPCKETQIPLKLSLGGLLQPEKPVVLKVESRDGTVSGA
Description: Recombinant enzymes, 3A4 and 2D6, generated using the ABL yeast expression system were used. […] The assay mixture also included K2HPO4 (pH 7.4; conc. 0.1 M) and NADPH (conc. 1 mM). The incubation time was 30 minutes, and the reference inhibitor was A-naphthoflavone. For CYP2D6, the enzyme amount was 2 pmol per well, and the substrate (7-methoxy-4-(aminomethyl)-coumarin; MAMC) was used at 20 μM. The assay mixture also included K2HPO4 (pH 7.4; conc. 0.1 M) and NADPH (conc. 0.06 mM). The incubation time was 35 minutes, and the reference inhibitor was quinidine.
Briefly, 0.6 μL of serially diluted compound was added to 75 μL water. 10 μL of diluted compound in water was then added to each assay plate. 20 μL of a K2HPO4, enzyme, and substrate mixture was added. After 10 minutes of room temperature pre-incubation, 10 μL of NADPH was added, and the plates were placed at 37° C. for 30 or 35 minutes depending on the enzyme being tested. After the incubation was complete, 20 μL of 0.1% Tris/ACN was added to the plate. The plate was read on a FluorStar fluorescence plate reader.

[5] = first base, e.g., an aliphatic primary, secondary, or tertiary amine, read-out: pKa (Base 1)
[6] = second base in the same molecule (if present), read-out: pKa (Base 2)
[7] = first base, e.g., an aliphatic primary, secondary, or tertiary amine

human dopamine transporter, sequence (Q01959 whole entry): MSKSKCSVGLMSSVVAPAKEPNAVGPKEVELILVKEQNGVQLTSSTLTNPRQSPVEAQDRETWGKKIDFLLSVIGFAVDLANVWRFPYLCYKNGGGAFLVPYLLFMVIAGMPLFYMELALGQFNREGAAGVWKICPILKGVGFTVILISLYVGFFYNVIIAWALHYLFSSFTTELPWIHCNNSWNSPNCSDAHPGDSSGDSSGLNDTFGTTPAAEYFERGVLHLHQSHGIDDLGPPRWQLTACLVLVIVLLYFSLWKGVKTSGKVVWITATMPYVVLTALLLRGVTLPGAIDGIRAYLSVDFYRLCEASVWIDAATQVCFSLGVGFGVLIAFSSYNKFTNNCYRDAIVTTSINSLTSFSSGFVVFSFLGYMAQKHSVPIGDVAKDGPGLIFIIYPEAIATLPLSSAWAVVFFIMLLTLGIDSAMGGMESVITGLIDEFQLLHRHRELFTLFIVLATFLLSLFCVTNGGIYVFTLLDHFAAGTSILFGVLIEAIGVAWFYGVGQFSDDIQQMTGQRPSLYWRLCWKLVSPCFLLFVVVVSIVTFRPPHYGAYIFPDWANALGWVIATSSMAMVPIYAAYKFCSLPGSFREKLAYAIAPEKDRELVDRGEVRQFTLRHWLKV

Structure (SMILES) | Ki [1] [µM] | Ki [2] [µM] | IC50 (CYP2D6) [µM] | IC50 (hERG) [µM] | pKa [3, 5] | pKa [3, 6] | Ki [4] [µM] | IC50 (CYP3A4) [µM] | pKa (Base 1) [3, 7]
C[C@](CN)(Cc1cccnc1)c1ccc2ccccc2c1 [Compound 42] | 0.0895 | 0.0032 | 1.1 | 27 | 9.2 | 5.2 | 0.0003 | 3.4 | 
CNC[C@@H](Cc1ccc(C)s1)c1ccc2ccccc2c1 [Compound 44] | 0.0741 | 0.0033 | 1 | 3.3 | 10 |  | 0.0122 | 8 | 
CNCC(Cc1cccnc1)c1ccc2ccccc2c1 (stereo not drawn) [Compound 48] | 0.078 | 0.0038 | 0.58 | 33 | 9.9 |  | 0.0023 | 15 | 
CNC[C@@H](c1ccc2ccccc2c1)[C@@H](O)c1cccnc1 [Compound 49] | 0.213 | 0.0038 | 1.7 | 25 | 9.6 | 5.1 | 0.0056 | 20 | 
CNCC(Cc1ccccc1O)c1ccc2ccccc2c1 (stereo not drawn) [Compound 52] | 0.0267 | 0.0041 | 0.9 | 12 | 10 |  | 0.0204 | 20 | 
CNCC(Cc1ccccc1OC)c1ccc2ccccc2c1 (stereo not drawn) [Compound 57] | 0.0202 | 0.005 | 0.19 | 4.7 | 10.1 |  | 0.0059 | 3.3 | 
CNC[C@H](c1ccc2ccccc2c1)[C@@H](O)c1ccccc1F [Compound 60] | 0.0832 | 0.0053 | 0.56 | 28 | 9.7 |  | 0.0107 | 20 | 
CNC[C@H](c1ccc2ccccc2c1)[C@@H](Cl)c1ccccc1 [Compound 61] | 0.0146 | 0.0058 | 0.3 | 9.8 | 9.5 |  | 0.0009 | 20 | 
CNC[C@H](c1ccc(Cl)c(Cl)c1)[C@@H](O)c1ccccc1[N+](=O)[O-] [Compound 65] | 0.0181 | 0.0075 | 0.043 | 19 | 9.3 |  | 0.243 | 7.8 | 
CNCC(CCc1ccccc1)[C@H](O)c1ccccc1 (stereo partly drawn) [Compound 66] | 0.0289 | 0.0081 | 0.26 | 15 | 10.1 |  | 0.0467 | 20 | 
CNC[C@H](c1ccc2ccccc2c1)[C@H](OCc1nc(C)no1)c1ccccc1 [Compound 67] | 0.0697 | 0.0082 | 0.33 | 15 | 9.6 |  | 0.0007 | 20 | 
CNCC(Cc1ccccc1O)c1ccc2ccccc2c1 (stereo not drawn) [Compound 69] | 0.0219 | 0.009 | 0.51 | 9.5 |  |  | 0.0212 | 20 | 10
CNC[C@H](c1ccc(Cl)c(Cl)c1)[C@@H](O)c1ccccc1 [Compound 70] | 0.0485 | 0.0095 | 0.22 | 31 | 9.4 |  | 0.143 | 20 | 
CNCC(Cc1cccnc1)c1ccc2ccccc2c1 (stereo not drawn) [Compound 74] | 0.109 | 0.0103 | 0.79 | 20 |  | 5.2 | 0.0136 | 8.1 | 9.9
CNC[C@H](c1ccc(Cl)c(Cl)c1)[C@H](O)c1cccc(Br)c1 [Compound 76] | 0.0212 | 0.0119 | 0.14 | 3 | 9.4 |  | 0.222 | 3.6 | 
CNC[C@@H](c1ccc2ccccc2c1)[C@@H](O)c1ccccc1F [Compound 78] | 0.0261 | 0.0143 | 1.1 | 12 | 9.7 |  | 0.0153 | 20 | 

Structure (SMILES) | Ki [1] [µM] | Ki [2] [µM] | IC50 (CYP2D6) [µM] | IC50 (hERG) [µM] | pKa [3, 5] | pKa [3, 6] | Ki [4] [µM] | IC50 (CYP3A4) [µM] | pKa (Base 1) [3, 7]
CN(C)C[C@H](c1ccc2ccccc2c1)[C@H](N)c1ccccc1 [Compound 82] | 0.0098 | 0.0153 | 0.99 | 19 | 9 | 8.3 | 0.0153 | 20 | 
CNCC(C[C@H](O)c1ccccc1)c1ccc2ccccc2c1 (stereo partly drawn) [Compound 85] | 0.247 | 0.0164 | 1 | 21 | 10.1 |  | 0.0161 | 20 | 
CN(C)CC(C)(c1ccc2ccccc2c1)C(O)c1ccccc1 (stereo not drawn) [Compound 86] | 0.0099 | 0.0167 | 0.29 | 0.85 | 9.2 |  | 0.0027 | 20 | 
CNC[C@H](c1ccc2ccccc2c1)[C@H](N)c1ccccc1 [Compound 87] | 0.114 | 0.0181 | 0.066 | 17 | 9.8 | 8.5 | 0.0061 | 0.94 | 
CN(C)C[C@H](c1ccc2ccccc2c1)[C@H](OCCO)c1ccccc1 [Compound 89] | 0.025 | 0.0214 | 1.8 | 6.6 | 8.9 |  | 0.0018 | 20 | 
CNC[C@H](c1ccc2ccccc2c1)[C@H](O)c1cncc(OC)c1 [Compound 92] | 0.216 | 0.028 | 0.81 | 33 | 9.6 | 4.5 | 0.0093 | 20 | 
CNC[C@H](c1ccc(Cl)c(Cl)c1)[C@@H](O)c1cccc(NC(C)=O)c1 [Compound 94] | 0.0526 | 0.0328 | 3 | 33 | 9.4 |  | 0.367 | 18 | 
NC[C@H](c1ccc2ccccc2c1)[C@@H](O)c1ccncc1Cl [Compound 95] | 0.0307 | 0.0335 | 0.41 | 33 | 8 |  | 0.0369 | 11 | 
CNC[C@@H](c1ccc2ccccc2c1)[C@H](O)c1ccccc1F [Compound 96] | 0.158 | 0.0368 | 1.1 | 33 | 9.7 |  | 0.0099 | 20 | 
CNC[C@H](c1ccc(Cl)c(Cl)c1)[C@@H](O)c1ccccc1SC [Compound 97] | 0.0226 | 0.0382 | 0.18 | 8 | 9.4 |  | 0.0784 | 15 | 
CNC[C@@H](c1ccc(Cl)c(Cl)c1)[C@H](O)c1cccc(NC(C)=O)c1 [Compound 98] | 0.216 | 0.0388 | 0.85 | 33 | 9.4 |  | 0.167 | 20 | 
CNC[C@@H](c1ccc2ccccc2c1)[C@H](O)c1ccccn1 [Compound 99] | 0.287 | 0.041 | 3.6 | 33 | 9.6 | 4.1 | 0.0432 | ≥ 20 | 
CNC[C@H](c1ccc(Cl)c(Cl)c1)[C@@H](O)c1ccccc1-c1cccs1 [Compound 100] | 0.0274 | 0.0438 | 0.064 | 21 | 9.4 |  | 0.361 | 8.2 | 
CNC[C@@H](c1ccc(Br)c(Cl)c1)[C@@H](O)c1ccccc1 [Compound 110] | 0.024 | 0.142 | 1.9 | 6.8 | 9.4 |  | 0.677 | 17 | 
NC[C@@H](c1ccc2ccccc2c1)C(O)c1ccncc1Cl (stereo partly drawn) [Compound 118] | 0.139 | 0.253 | 3.9 | 24 | 8 |  | 0.0366 | 20 | 
CNCC(Cc1ccccc1C)c1ccc2ccccc2c1 (stereo not drawn) [Compound 134] | 0.0568 | 0.006 | 0.22 | 6.2 | 10.1 |  | 0.0078 | 9.9 | 
